These are literature values, as cited in patent US9889198B2 (KemPharm, Inc., priority 2010, dated 2018).

For data set [1], the system named is leptin release. To be noted: chronic oral administration, 6 weeks.
Data set [2] deals with human NET (Homo sapiens, UniProt P23975). To be noted: relative to quetiapine.
Data set [3] has as its target T1, 5-HT1A receptor (Homo sapiens, UniProt P08908).
T1 sequence (P08908 1-422): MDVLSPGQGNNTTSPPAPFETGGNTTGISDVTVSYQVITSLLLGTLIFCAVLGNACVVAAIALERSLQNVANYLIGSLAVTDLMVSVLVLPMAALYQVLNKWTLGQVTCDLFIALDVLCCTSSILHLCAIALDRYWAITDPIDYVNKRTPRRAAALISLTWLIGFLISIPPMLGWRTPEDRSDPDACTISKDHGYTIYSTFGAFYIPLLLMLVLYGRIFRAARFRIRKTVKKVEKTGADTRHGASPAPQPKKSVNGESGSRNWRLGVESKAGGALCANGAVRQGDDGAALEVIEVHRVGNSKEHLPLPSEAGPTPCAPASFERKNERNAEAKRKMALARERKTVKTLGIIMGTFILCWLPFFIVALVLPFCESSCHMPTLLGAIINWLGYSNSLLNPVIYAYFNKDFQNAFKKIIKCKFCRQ
As to conditions: relative to quetiapine.

human NET, sequence (P23975 whole entry): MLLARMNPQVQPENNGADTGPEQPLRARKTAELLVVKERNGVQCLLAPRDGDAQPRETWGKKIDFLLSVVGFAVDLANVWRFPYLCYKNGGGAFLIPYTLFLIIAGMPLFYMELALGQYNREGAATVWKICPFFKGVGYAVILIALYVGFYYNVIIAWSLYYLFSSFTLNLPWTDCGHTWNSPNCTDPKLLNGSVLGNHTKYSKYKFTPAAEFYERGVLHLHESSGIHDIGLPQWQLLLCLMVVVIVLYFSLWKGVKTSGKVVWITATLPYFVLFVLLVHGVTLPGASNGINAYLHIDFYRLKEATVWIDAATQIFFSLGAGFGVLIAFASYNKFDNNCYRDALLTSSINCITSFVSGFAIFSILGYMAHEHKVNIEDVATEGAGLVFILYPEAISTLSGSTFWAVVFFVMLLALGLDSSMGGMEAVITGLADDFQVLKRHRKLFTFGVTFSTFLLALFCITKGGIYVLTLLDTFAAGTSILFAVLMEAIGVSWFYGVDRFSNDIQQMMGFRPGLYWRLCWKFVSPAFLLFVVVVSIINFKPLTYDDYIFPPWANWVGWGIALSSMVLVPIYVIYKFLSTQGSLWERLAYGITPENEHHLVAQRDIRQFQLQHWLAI

As for `OCCOCCN1CCN(C2=Nc3ccccc3Sc3ccccc32)CC1` [quetiapine, 2-(2-(4-(dibenzo[b,f][1,4]thiazepin-11-yl)piperazin-1-yl)ethoxy)ethanol], the “increase in leptin release” value in data set [1] is given as “about 37%”.

`c1ccc2c(c1)N=C(N1CCNCC1)c1ccccc1S2` [N-desalkyl-quetiapine]: the “higher avidity for inhibiting human NET than quetiapine” value in data set [2] is “about 100 fold”. The “more potent than quetiapine at the 5-HT1A receptor” value in data set [3] is 10 fold.

In the case of `CCCC(CCC)C(=O)O` [Valproic acid, 2-propylpentanoic acid], under “acute mania patients”, the “response rate in acute mania” value is reported as “around 50%”. For the same compound, the “response rate in bipolar depression” value (bipolar depression) was roughly 30%.
